Assay results from patent publication US20090028888A1, “Cancer Antigen Mage-A9 and Uses Thereof” (priority 2005, published 2009).

Columns and labels:
[1] = system: CT genes; details: cited from earlier work; for expression of CT genes, combination with 5-AZA-DC: HDAC inhibitor combined with 5-AZA-DC
[2] = system: MAGE-A9 gene expression in bladder cancer cell lines; assay: RT-PCR analysis of MAGE-A9 gene expression induction in bladder cancer cell lines; details: MGH-U3, 5637 and VMCUB-3; 1 μM 5-AZA-DC alone, 96 hours

| Structure (SMILES) | induction of the expression of several CT genes ([1]; single agent) | MAGE-A9 mRNA induction [2] | expression of CT genes, combination with 5-AZA-DC [1] |
| --- | --- | --- | --- |
| Nc1ncn([C@H]2C[C@H](O)[C@@H](CO)O2)c(=O)n1 [5-AZA-DC, 5-aza-2′-deoxycytidine] | potent inducers | strongly induced | – |
| C/C=C1\NC(=O)[C@H]2CSSCC/C=C/[C@H](CC(=O)N[C@H](C(C)C)C(=O)N2)OC(=O)[C@H](C(C)C)NC1=O [depsipetide] | – | – | stronger expression |
| CC(/C=C/C(=O)NO)=C\[C@@H](C)C(=O)c1ccc(N(C)C)cc1 [trichostatin A] | – | – | stronger expression |
